{"source": "patent US20070238700A1", "about": "“N-PHENYL-1,1,1-TRIFLUOROMETHANESULFONAMIDE HYDRAZONE DERIVATIVE COMPOUNDS AND THEIR USAGE IN CONTROLLING PARASITES” (priority 2006, published 2007)", "key": {"Haemonchus contortus": {"system": "Haemonchus contortus", "test": "Haemonchus contortus larvacidal assay (larval development, LD99)", "procedure": "a) Haemonchus Contortus Larvacidal Assay:\nThe effect of compounds on larval development was determined in the assay described by Gill et al., (1995, International Journal of Parasitology 25:463-470). Briefly, in this assay, nematode eggs were applied to the surface of an agar matrix containing the test compound and then allowed to develop through to the L3, infective stage (6 days). The wells for each dilution of every compound (from highest to lowest concentration) were inspected to determine the well number corresponding to the lowest concentration at which development was inhibited in 99% of the nematode larvae present (LD99). Because well numbers correspond to a two-fold serial dilution of each compound, a titre (dilution factor) is generated as 2n^−1, where n is the well number. By dividing the highest concentration tested by the titre an LD99 value can be obtained, representing the concentration required to inhibit development in 99% of the nematode larvae present. The compounds supplied as solid and viscous liquids were dissolved in DMSO. Twelve serial one-half dilutions in DMSO solution were prepared from the stock solution, each of which was then diluted ⅕ with water. Aliquots (10 μl) of each dilution were transferred to the bioassay plates to give a final concentration range of 0.024 to 50 μg/ml."}, "Ctenocephalides felis [1]": {"system": "Ctenocephalides felis", "in_short": "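Adult cat fleas (3–7 days post-emergence), 15 per flask in ≥4 replicates, exposed to a dried acetone residue at 1.26 μg/cm^2 on a Coatasil-treated glass flask base. Held at 25±1° C, 75±5% humidity; mortality (immobile or unable to right) scored at 8, 24 and/or 48 h.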"}, "Ctenocephalides felis [2]": {"system": "Ctenocephalides felis", "test": "Ctenocephalides felis adulticide assay: C. felis dose response (LC50)"}, "Rhipicephalus sanguineus [3]": {"system": "Rhipicephalus sanguineus", "test": "Rapid screening protocol for topical application on brown dog ticks (% mortality)", "settings": "data from laboratory 2", "in_short": "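Mixed-sex unfed adult ticks each received 1 μL test sample in acetone on the abdomen at a single screening dose chosen above the reference LD90 (fipronil 10 μg/tick), with acetone-only controls; 4 replicates of 10 ticks. Held 24 h at 25±1 °C; ticks unresponsive to light touch over 1 min scored dead, pooled as % mortality.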"}, "Rhipicephalus sanguineus [4]": {"system": "Rhipicephalus sanguineus", "test": "Dose response protocol for topical application on brown dog ticks (LD50)", "settings": "24 h mortality, probit analysis", "in_short": "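Adult mixed-sex unfed ticks, groups of ten in four replicates, received 1 μL of one of seven acetone serial dilutions topically on the abdomen at 25±1° C; acetone-only controls. Mortality (no response to touch or breath within 30 s) was scored at 24 h to give the LD50.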"}}, "note": "Like-named read-outs stand apart in the source and are kept apart here."}
{"smiles": "Cn1ccc(-c2cc(Cl)ccc2NS(=O)(=O)C(F)(F)F)n1", "values": [{"measurement": "melting point", "result": "196 to 197", "unit": "°C"}]}
{"smiles": "CC(=NNc1ccc(C(F)(F)F)cc1)c1cc(Cl)ccc1NS(=O)(=O)C(F)(F)F", "note": "[Compound 1, N-[2-[1-(4-trifluoro-methylphenyl)hydrazono]ethyl-4-chlorophenyl]-trifluoromethanesulfonamide]", "values": [{"measurement": "H. contortus LD99", "setting": "Haemonchus contortus", "result": 3.8, "unit": "ppm"}]}
{"smiles": "CCC(=NNc1ccc(C(F)(F)F)cc1)c1cc(Cl)ccc1NS(=O)(=O)C(F)(F)F", "note": "[Compound 2]", "values": [{"measurement": "H. contortus LD99", "setting": "Haemonchus contortus", "result": 6, "unit": "ppm"}]}
{"smiles": "CC(=NNc1cccc(Cl)c1Cl)c1cc(Cl)ccc1NS(=O)(=O)C(F)(F)F", "note": "[Compound 3]", "values": [{"measurement": "H. contortus LD99", "setting": "Haemonchus contortus", "result": 1.5, "unit": "ppm"}]}
{"smiles": "CC(=NNc1ccc(Cl)cc1Cl)c1cc(Cl)ccc1NS(=O)(=O)C(F)(F)F", "note": "[Compound 4]", "values": [{"measurement": "H. contortus LD99", "setting": "Haemonchus contortus", "result": 0.63, "unit": "ppm"}]}
{"smiles": "CC(=NNc1ccc(Cl)c(Cl)c1)c1cc(Cl)ccc1NS(=O)(=O)C(F)(F)F", "note": "[Compound 5]", "values": [{"measurement": "H. contortus LD99", "setting": "Haemonchus contortus", "result": 3.3, "unit": "ppm"}]}
{"smiles": "CC(=NNc1cc(Cl)cc(Cl)c1)c1cc(Cl)ccc1NS(=O)(=O)C(F)(F)F", "note": "[Compound 6]", "values": [{"measurement": "H. contortus LD99", "setting": "Haemonchus contortus", "result": 3.5, "unit": "ppm"}]}
{"smiles": "CC(=NNc1cc(Cl)ccc1Cl)c1cc(Cl)ccc1NS(=O)(=O)C(F)(F)F", "note": "[Compound 7]", "values": [{"measurement": "H. contortus LD99", "setting": "Haemonchus contortus", "result": 0.94, "unit": "ppm"}]}
{"smiles": "CC(=NNc1ccc(Br)cc1)c1cc(Cl)ccc1NS(=O)(=O)C(F)(F)F", "note": "[Compound 8]", "values": [{"measurement": "H. contortus LD99", "setting": "Haemonchus contortus", "result": 7.5, "unit": "ppm"}, {"measurement": "C. felis Mortality (%) 8 h", "setting": "Ctenocephalides felis [1]; 8 h, data from laboratory 2", "result": "12^B %"}]}
{"smiles": "COc1ccc(NN=C(C)c2cc(Cl)ccc2NS(=O)(=O)C(F)(F)F)cc1", "note": "[Compound 10]", "values": [{"measurement": "H. contortus LD99", "setting": "Haemonchus contortus", "result": ">15", "unit": "ppm"}]}
{"smiles": "CC(=NNC(=O)c1ccccc1)c1cc(Cl)ccc1NS(=O)(=O)C(F)(F)F", "note": "[Compound 11]", "values": [{"measurement": "H. contortus LD99", "setting": "Haemonchus contortus", "result": ">15", "unit": "ppm"}]}
{"smiles": "CCC(=NNc1cccc(Cl)c1Cl)c1cc(Cl)ccc1NS(=O)(=O)C(F)(F)F", "note": "[Compound 13, N-[2-[1-(2,3-dichlorophenyl)hydrazono]propyl-4-chlorophenyl]-trifluoromethanesulfonamide]", "values": [{"measurement": "H. contortus LD99", "setting": "Haemonchus contortus", "result": 3, "unit": "ppm"}]}
{"smiles": "CCC(=NNc1ccc(Cl)c(Cl)c1)c1cc(Cl)ccc1NS(=O)(=O)C(F)(F)F", "note": "[Compound 14]", "values": [{"measurement": "H. contortus LD99", "setting": "Haemonchus contortus", "result": 3.8, "unit": "ppm"}]}
{"smiles": "CCC(=NNc1ccc(Br)cc1)c1cc(Cl)ccc1NS(=O)(=O)C(F)(F)F", "note": "[Compound 15]", "values": [{"measurement": "H. contortus LD99", "setting": "Haemonchus contortus", "result": 3.8, "unit": "ppm"}]}
{"smiles": "CCC(=NNc1cc(Cl)cc(Cl)c1)c1cc(Cl)ccc1NS(=O)(=O)C(F)(F)F", "note": "[Compound 16]", "values": [{"measurement": "H. contortus LD99", "setting": "Haemonchus contortus", "result": 2.8, "unit": "ppm"}]}
{"smiles": "CCC(=NNc1ccc(Cl)cc1Cl)c1cc(Cl)ccc1NS(=O)(=O)C(F)(F)F", "note": "[Compound 18]", "values": [{"measurement": "H. contortus LD99", "setting": "Haemonchus contortus", "result": 0.47, "unit": "ppm"}, {"measurement": "C. felis Mortality (%) 8 h", "setting": "Ctenocephalides felis [1]; 8 h, data from laboratory 2", "result": "5^B %"}]}
{"smiles": "CCC(=NNc1cc(Cl)ccc1Cl)c1cc(Cl)ccc1NS(=O)(=O)C(F)(F)F", "note": "[Compound 19]", "values": [{"measurement": "H. contortus LD99", "setting": "Haemonchus contortus", "result": 0.94, "unit": "ppm"}]}
{"smiles": "C/C(=N\\N(C)C1CCCC1)c1cc(Cl)ccc1NS(=O)(=O)C(F)(F)F", "note": "[Compound 211]", "values": [{"measurement": "C. felis Mortality (%) 8 h", "setting": "Ctenocephalides felis [1]", "result": 12, "unit": "%"}, {"measurement": "C. felis Mortality (%) 24 h", "setting": "Ctenocephalides felis [1]", "result": 85, "unit": "%"}, {"measurement": "C. felis LC50", "setting": "Ctenocephalides felis [2]", "result": 1.9, "unit": "ppm"}, {"measurement": "R. sanguineus Mortality (%) 24 h", "setting": "Rhipicephalus sanguineus [3]", "result": 98, "unit": "%"}, {"measurement": "R. sanguineus LD50", "setting": "Rhipicephalus sanguineus [4]", "result": 1.01, "unit": "μg/tick"}]}
{"smiles": "C/C(=N\\N(C)C1CCCCC1)c1cc(Cl)ccc1NS(=O)(=O)C(F)(F)F", "note": "[Compound 215]", "values": [{"measurement": "C. felis Mortality (%) 8 h", "setting": "Ctenocephalides felis [1]", "result": 8, "unit": "%"}, {"measurement": "C. felis Mortality (%) 24 h", "setting": "Ctenocephalides felis [1]", "result": 100, "unit": "%"}, {"measurement": "C. felis LC50", "setting": "Ctenocephalides felis [2]", "result": 2.54, "unit": "ppm"}, {"measurement": "R. sanguineus Mortality (%) 24 h", "setting": "Rhipicephalus sanguineus [3]", "result": 73, "unit": "%"}, {"measurement": "R. sanguineus LD50", "setting": "Rhipicephalus sanguineus [4]", "result": 1.29, "unit": "μg/tick"}]}
{"smiles": "CC(=O)N(CCC#N)/N=C(\\C)c1cc(Cl)ccc1NS(=O)(=O)C(F)(F)F", "note": "[Compound 221]", "values": [{"measurement": "C. felis Mortality (%) 8 h", "setting": "Ctenocephalides felis [1]", "result": 15, "unit": "%"}, {"measurement": "C. felis Mortality (%) 24 h", "setting": "Ctenocephalides felis [1]", "result": 100, "unit": "%"}, {"measurement": "C. felis LC50", "setting": "Ctenocephalides felis [2]", "result": 2.2, "unit": "ppm"}, {"measurement": "R. sanguineus Mortality (%) 24 h", "setting": "Rhipicephalus sanguineus [3]", "result": 90, "unit": "%"}, {"measurement": "R. sanguineus LD50", "setting": "Rhipicephalus sanguineus [4]", "result": 0.53, "unit": "μg/tick"}]}
{"smiles": "C/C(=N\\N(CCC#N)C(=O)c1ccccc1)c1cc(Cl)ccc1NS(=O)(=O)C(F)(F)F", "note": "[Compound 222]", "values": [{"measurement": "C. felis Mortality (%) 8 h", "setting": "Ctenocephalides felis [1]", "result": 5, "unit": "%"}, {"measurement": "C. felis Mortality (%) 24 h", "setting": "Ctenocephalides felis [1]", "result": 89, "unit": "%"}, {"measurement": "C. felis LC50", "setting": "Ctenocephalides felis [2]", "result": 2.64, "unit": "ppm"}, {"measurement": "R. sanguineus Mortality (%) 24 h", "setting": "Rhipicephalus sanguineus [3]", "result": 88, "unit": "%"}, {"measurement": "R. sanguineus LD50", "setting": "Rhipicephalus sanguineus [4]", "result": 0.56, "unit": "μg/tick"}]}
{"smiles": "CCCCCC(=O)N(CCC#N)/N=C(\\C)c1cc(Cl)ccc1NS(=O)(=O)C(F)(F)F", "note": "[Compound 224]", "values": [{"measurement": "C. felis Mortality (%) 8 h", "setting": "Ctenocephalides felis [1]", "result": 3, "unit": "%"}, {"measurement": "C. felis Mortality (%) 24 h", "setting": "Ctenocephalides felis [1]", "result": 100, "unit": "%"}, {"measurement": "C. felis LC50", "setting": "Ctenocephalides felis [2]", "result": 3.54, "unit": "ppm"}, {"measurement": "R. sanguineus Mortality (%) 24 h", "setting": "Rhipicephalus sanguineus [3]", "result": 100, "unit": "%"}, {"measurement": "R. sanguineus LD50", "setting": "Rhipicephalus sanguineus [4]", "result": 0.71, "unit": "μg/tick"}]}
